What was measured:
hepatitis-C = test system: hepatitis-C
Experimental: Twelve patients in the active stage of hepatitis-C were selected for this study. The study group consisted of eight females and four males between 36 and 57 years of age. […] The control powder contained vegetable oil, corn syrup solids, and lactose. Quality control (to check for product identity and purity) was done by HPLC through comparisons with those obtained from reference samples from Sigma Corp, St Louis, Mo. The GMDP powder was diluted with 10 ml sterile distilled water. The daily GMDP dosage ranged from 0.1-0.5 mg/kg of the patient's body weight for blastolysine 80-120 mg/kg of body weight. Statistical analysis were done with Epi-Info Statistical Package (Center for Disease Control and Prevention, Atlanta, Ga.) with two way comparison by the Fischer's exact test (two tailed). Eleven patients were orally administered GMDP at dosage of […] daily in a water solution for one or two months. One patient with 44000×1000 viral load and early liver cirrhosis was treated for one year. GMDP at dosage of 0.1-0.5 mg/kg daily was administered to 11 patients.

[1] = test system: human CD4+ lymphocytes taken from AIDS patient; assay: LDH assay of the inhibition of Fas antigen mediated apoptosis in vitro; type: cell-based; conditions: LDH release 16 h after anti-Fas antibodies, FIG. 3
Experimental: The following cell lines were used for this assay: A549 (human lung carcinoma cells), A431 (human […]), L929 (mouse […]), human CD4+ lymphocytes taken from AIDS patient. All cells are commercially available from ATCC. They were maintained in DME medium supplemented with 10% FCS and glutamine in CO2 incubator. Lactate dehydrogenase (LDH) assay Cells were seeded into 35 mm Petri dishes and grown up to 70% confluency. Then they were treated with human recombinant antibodies against Fas antigen (gift from […] Co.) in the concentration indicated in the figures. In cases where the cells were not spontaneously sensitive to Fas ligand induced cytolysis, cycloheximide (CHX), a powerful blocker of the protein synthesis, which sensitizes the cells to anti Fas antibodies action, was used in concentration of 25 μg/ml. Sixteen hours after treatment, 20 μl samples of the cultured supernatants were removed and assayed for LDH release by the Cytotox 96 assay (Promega Biotech., Madison, Wis.)in accordance with the manufacturer's instructions. This methodology is based upon the fact that when cells are dying they are releasing LDH. […] These samples were assayed in triplicate on an EL340 Microplate reader (Bic) Tech Instruments Inc.) at 490 nm wave length. The average of these three readings was plated on the graphs (FIGS. 1, 2, 3 and 4).

[2] = test system: A 549 cells (human small cell lung carcinoma); assay: DNA fragmentation test (LDH released by dying cells measured by optic density) after TNF-α; type: cell-based; conditions: A549; TNF-α 10 nanograms/ml; GMDP 1 and 2 μg/ml; 8 hours
Experimental: The LDH analysis procedure is described above. A 549 cells (human small cell lung carcinoma) were utilized for the DNA fragmentation test and treated with GMDP 1 ug/ml and with GMDP 2 ug/ml for 2 hours and then treated with human TNF-α (Sigma Corp., St. Louis, Mo.). FIGS. 8 and 9 are plots of the optical density measurements of two different scans each with six samples utilizing the DNA fragmentation procedure. […] TNF-α levels were 10 nanograms/ml for all samples, while samples 1-4 contained no GMDP, sample 5 contained 1 μg/ml GMDP and sample 6 contained 2 μg/ml GMDP. Sample 1 was analyzed after 0 hours, sample 2 analyzed after 2 hours, sample 3 analyzed after 4 hours, while samples 4, 5, and 6 were analyzed after 8 hours. Accordingly, only samples 5 and 6 from each scan measure cell protection after 8 hours. […] In other words, the higher purity GMDP drastically increases cell protection and antiapoptotic activity.

In the case of `CC(=O)NC1C(OC2C(CO)OC(O)C(NC(C)=O)C2OC(C)C(=O)NC(C)C(=O)NC(CCC(=O)O)C(N)=O)OC(CO)C(O)C1O` [GMDP, N-acetyl-D-glucosaminyl-(β1-4)-N-acetylmuramyl-L-alanyl-D-isoglutamine], the “reduction in bilirubin concentration” value (hepatitis-C; 2 patients with elevated level) is reported as 19%(3), the “decrease of LDH and GGTP activity” value (hepatitis-C; 7 patients who had elevated level) is reported as 34% (6) and the “effect on AST and APT activity” value (hepatitis-C; 7 patients who had elevated level of these enzymes) is reported as “beneficial effect”. The fatigue and nausea (hepatitis-C; after first week, all patients who had these symptoms) was “completely subsided”, the “serum HPC RNA test, reduction of viral load” value (hepatitis-C; after the first three weeks of treatment, all patients) was “two-three fold reduction” and the overall clinical conditions (hepatitis-C; all patients treated, follow up period) was “improved”. The toxic effects (hepatitis-C; human, in vivo, po) was “No patients experienced toxic effects”, the free iron test (hepatitis-C; one patient with high levels of free iron) was “full normalization” and the “effect on alkaline phosphates activity” value (hepatitis-C; one patient with previously elevated level) was “Lowering effect”. The “follow-up liver biopsy, pathology examination” value (hepatitis-C; one patient, end of one year treatment) was “no sign of previous necrosis and cirrhosis”, the follow-up liver biopsy (hepatitis-C; two patients with diagnosed mild necrosis and fibrosis) was “no necrosis or fibrotic change was detectable” and the “maximum inhibition of Fas Ag antibodies mediated cell lysis (reduction)” value [1] was 72%.
`CC(=O)NC1C(OC2C(CO)OC(O)C(NC(C)=O)C2OC(C)C(=O)NC(C)C(=O)NC(CCC(=O)O)C(N)=O)OC(CO)C(O)C1O` [GMDP of about 98.3% purity, N-acetyl-D-glucosaminyl-(β1-4)-N-acetylmuramyl-L-alanyl-D-isoglutamine] was tested, and the “optical density relative to cells exposed to GMDP of about 97.3% purity” value [2] was “less than ½”.

— patent publication US20010018416A1, “COMPOSITIONS AND METHODS FOR TREATING HEPATITIS-C” (priority 1997, published 2001)
